Results as given in patent US10602743B2, “Method of inducing drought/salt tolerance using Bacillus megaterium” (Marrone Bio Innovations, Inc., priority 2012, dated 2020).
Where a name gives a salt, the structure may show the parent alone. Read-outs that look alike come from different tables or passages of the source.

Tested on: Bacillus megaterium strain H491
Test: Chemical sensitivity, Biolog Phenotypic Microarray
Type: cell-based
[1] = Biolog Phenotypic Microarray, 25° C.

Row | SMILES | H491 susceptible to compound [1] | H491 susceptible to compound
1 | O=C(O)CN(CCOCCOCCN(CC(=O)O)CC(=O)O)CC(=O)O [Ethylene Glycol-bis(b-Aminoethyl ether)-N,N,N′,N′-Tetraacetic Acid] | susceptible | 
2 | N#CC(C#N)=NNc1ccc(OC(F)(F)F)cc1 [FCCP] | susceptible | 
3 | O=C1OC(CN2CCOCC2)CN1/N=C/c1ccc([N+](=O)[O-])o1 (stereo not drawn) [Furaltadone] | susceptible | 
4 | CC(=O)O[C@H]1C[C@@]2(C)[C@@H](C[C@@H](O)[C@H]3[C@@]4(C)CC[C@@H](O)[C@@H](C)[C@@H]4CC[C@@]32C)/C1=C(\CCC=C(C)C)C(=O)O [Fusidic acid, sodium salt] | susceptible | 
5 | O=C(O)c1cc(O)c(O)c(O)c1 [Gallic acid] | susceptible | 
6 | NCC(=O)NO [Glycine hydroxamate] | susceptible | 
7 | N=C(N)N [Guanidine hydrochloride] | susceptible | 
8 | Oc1c(Cl)cc(Cl)c(Cl)c1Cc1c(O)c(Cl)cc(Cl)c1Cl [Hexachlorophene] | susceptible | 
9 | N.N.N.N.N.N.[Cl-].[Cl-].[Cl-].[Co+3] [Hexamine cobalt (III) chloride] | susceptible | 
10 | NC(=O)NO [Hydroxyurea] | susceptible | 
11 | O=C(O)CI [Iodoacetic acid] |  | susceptible
12 | CO[C@@H]1[C@@H](O[C@@H]2O[C@H](C)[C@@H](O[C@H]3C[C@@](C)(O)[C@@H](OC(=O)CC(C)C)[C@H](C)O3)[C@H](N(C)C)[C@H]2O)[C@@H](CC=O)C[C@@H](C)[C@@H](O)/C=C/C=C/C[C@@H](C)OC(=O)C[C@H]1OC(C)=O [Josamycin] | susceptible | 
13 | CC(C(=O)O)c1cccc(C(=O)c2ccccc2)c1 (stereo not drawn) [Ketoprofen] | susceptible | 
14 | N[C@@H](CC(=O)NO)C(=O)O [L-Aspartic-b-hydroxamate] | susceptible | 
15 | CCCCCCCCCCCC[N+](C)(C)CCCS(=O)(=O)[O-] [Lauryl sulfobetaine, N-Dodecyl-N,N-dimethyl-3-ammonio-1-propanesulfonate] | susceptible | 
16 | CCN(CC)CC(=O)Nc1c(C)cccc1C [Lidocaine] | susceptible | 
17 | CCC[C@@H]1C[C@@H](C(=O)N[C@@H]([C@H]2O[C@H](SC)[C@H](O)[C@@H](O)[C@H]2O)[C@@H](C)O)N(C)C1 [Lincomycin] | susceptible | 
18 | [Cl-].[Li+] [Lithium chloride] | susceptible | 
19 | CC1(S(=O)(=O)[O-])CC(=O)c2ccccc2C1=O.[Na+] (stereo not drawn) [Menadione, sodium bisulfite] | susceptible | 
20 | C[n+]1ccc(-c2cc[n+](C)cc2)cc1 [Methyl viologen] | susceptible | 
21 | CCCCCCCC[N+](C)(CCCCCCCC)CCCCCCCC.[Cl-] [Methyltrioctylammonium chloride] | susceptible | 
22 | CCOc1ccc2ccccc2c1C(=O)N[C@@H]1C(=O)N2[C@@H]1SC(C)(C)[C@@H]2C(=O)O [Nafcillin] | susceptible | 
23 | CCn1cc(C(=O)O)c(=O)c2ccc(C)nc21 [Nalidixic acid] | susceptible | 
24 | CO[C@@H]1[C@@H](OC(N)=O)[C@@H](O)[C@H](Oc2ccc3c(O)c(NC(=O)c4ccc(O)c(CC=C(C)C)c4)c(=O)oc3c2C)OC1(C)C [Novobiocin] | susceptible | 
25 | CO[C@H]1C[C@H](O[C@H]2[C@H](C)[C@@H](O[C@@H]3O[C@H](C)C[C@H](N(C)C)[C@H]3O)[C@@H](C)C[C@@]3(CO3)C(=O)[C@H](C)[C@@H](O)[C@@H](C)[C@@H](C)OC(=O)[C@@H]2C)O[C@@H](C)[C@@H]1O [Oleandomycin, phosphate salt] | susceptible | 
26 | Cc1ncc([N+](=O)[O-])n1CC(O)CCl (stereo not drawn) [Ornidazole] | susceptible | 

Row | SMILES | H491 susceptible to compound [1] | H491 susceptible to compound
27 | Cc1ccccc1C(OCCN(C)C)c1ccccc1 (stereo not drawn) [Orphenadrine] | susceptible | 
28 | Cc1onc(-c2ccccc2)c1C(=O)N[C@@H]1C(=O)N2[C@@H]1SC(C)(C)[C@@H]2C(=O)O [Oxacillin] | susceptible | 
29 | CC1=C(C(=O)Nc2ccccc2)S(=O)(=O)CCO1 [Oxycarboxin] | susceptible | 
30 | NC[C@@H]1O[C@H](O[C@H]2[C@@H](O)[C@H](O[C@@H]3[C@@H](O)[C@H](N)C[C@H](N)[C@H]3O[C@H]3O[C@H](CO)[C@@H](O)[C@H](O)[C@H]3N)O[C@@H]2CO)[C@H](N)[C@@H](O)[C@@H]1O [Paromomycin] | susceptible | 
31 | O=C1C=C2C(=CCOC2O)O1 (stereo not drawn) [Patulin] | susceptible | 
32 | CC1(C)S[C@@H]2[C@H](NC(=O)Cc3ccccc3)C(=O)N2[C@H]1C(=O)O [Penicillin G] | susceptible | 
33 | Oc1c(Cl)c(Cl)c(Cl)c(Cl)c1Cl [Pentachlorophenol] | susceptible | 
34 | CC(Oc1ccccc1)C(=O)N[C@@H]1C(=O)N2[C@@H]1SC(C)(C)[C@@H]2C(=O)O (stereo partly drawn) [Phenethicilllin] | susceptible | 
35 | CC1=CC(=O)c2c(O)cccc2C1=O [Plumbagin] | susceptible | 
36 | O=[Te]([O-])[O-].[K+].[K+] [Potassium tellurite] | susceptible | 
37 | OC(CCN1CCCCC1)(c1ccccc1)c1ccccc1 [Pridinol] | susceptible | 
38 | Nc1ccc2cc3ccc(N)cc3nc2c1 [Proflavine] | susceptible | 
39 | CC(CN1c2ccccc2Sc2ccccc21)N(C)C (stereo not drawn) [Promethazine] | susceptible | 
40 | COc1ccc(C[C@H](N)C(=O)N[C@H]2[C@@H](O)[C@H](n3cnc4c(N(C)C)ncnc43)O[C@@H]2CO)cc1 [Puromycin] | susceptible | 
41 | CO[C@H]1/C=C/O[C@@]2(C)Oc3c(C)c([O-])c4c(O)c(cc(O)c4c3C2=O)NC(=O)/C(C)=C\C=C\[C@H](C)[C@H](O)[C@@H](C)[C@@H](O)[C@@H](C)[C@H](OC(C)=O)[C@@H]1C.[Na+] [Rifamycin SV] | susceptible | 
42 | O=C([O-])c1ccccc1O.[Na+] [Salicylate, sodium] |  | susceptible
43 | C[n+]1cc2c3c(ccc2c2ccc4cc5c(cc4c21)OCO5)OCO3 [Sanguinarine chloride] | susceptible | 
44 | NNC(N)=O [Semicarbazide hydrochloride] | susceptible | 
45 | CN[C@@H]1[C@@H](O)[C@@H](O[C@@H]2[C@@H](O)[C@H](O[C@H]3OC(CN)=CC[C@H]3N)[C@@H](N)C[C@H]2N)OC[C@]1(C)O [Sisomicin] | susceptible | 
46 | O=[As]O [Sodium Arsenite] | susceptible | 
47 | CCCCCCCC(=O)[O-].[Na+] [Sodium Caprylate] | susceptible | 
48 | N#CO [Sodium Cyanate] | susceptible | 
49 | [Na+].[Na+].[O]=[Cr](=[O])([O-])[O][Cr](=[O])(=[O])[O-] [Sodium Dichromate] | susceptible | 
50 | O=NO [Sodium Nitrite] |  | susceptible
51 | [Na+].[Na+].[O]=[W](=[O])([O-])[O-] [Sodium Tungstate] | susceptible | 
